Experimental data from patent US20240132484A1, “BROAD SPECTRUM ANTIVIRAL COMPOUNDS TARGETING THE SKI COMPLEX” (priority 2020, published 2024).
Values joined by “and” are separate entries in the source; they are usually repeats but may differ in a detail not shown here. Equal values may be shown once. Read-outs that look alike come from different tables or passages of the source.

Key:
cells (nuclei count) = conditions: for Relative cell count to DMSO controls, Average 1 μM / Relative cell count to DMSO controls, Average 5 μM / Relative cell count to DMSO controls, Average 10 μM / Relative cell count to DMSO controls, Average 25 μM / Relative cell count to DMSO controls, Average 50 μM: toxicity data, 100=DMSO control; for Relative cell count to DMSO controls, Average (for correlation analysis): average value over the 5 tested concentrations (1 to 50 uM); for Toxicity Data, Average, Mean percentage relative to DMSO control: Average of Exp 1 (SMW491) and Exp 2 (SMW492)
SARS2 = format: cell-based, SARS-CoV-2; conditions: for Percentage Inhibition Average 1 μM / Screening data (Relative infection to DMSO controls) Average 1 μM: SARS2, 1 μM; for Screening data (Relative infection to DMSO controls) Average 1 μM / Screening data (Relative infection to DMSO controls) Average 5 μM / Screening data (Relative infection to DMSO controls) Average 10 μM / Screening data (Relative infection to DMSO controls) Average 25 μM / Screening data (Relative infection to DMSO controls) Average 50 μM / Average (relative infection to DMSO over the 5 tested concentrations): 100=DMSO control; for Percentage Inhibition Average 5 μM / Screening data (Relative infection to DMSO controls) Average 5 μM: SARS2, 5 μM; for Percentage Inhibition Average 10 μM / Screening data (Relative infection to DMSO controls) Average 10 μM: SARS2, 10 μM; for Percentage Inhibition Average 25 μM / Screening data (Relative infection to DMSO controls) Average 25 μM: SARS2, 25 μM; for Percentage Inhibition Average 50 μM / Screening data (Relative infection to DMSO controls) Average 50 μM: SARS2, 50 μM; for Average (relative infection to DMSO over the 5 tested concentrations): SARS2, average over 1 to 50 uM; for Percentage Infection Relative to Appropriate DMSO Control with Avg Background Subtraction: Nunc Celigo plates; for Infection Data, Average, Mean: average of Exp 1-2 (SMW491, SMW492)

| SMILES | Relative cell count to DMSO controls, Average 1 μM (cells (nuclei count)) | Relative cell count to DMSO controls, Average 5 μM (cells (nuclei count)) | Relative cell count to DMSO controls, Average 10 μM (cells (nuclei count)) | Relative cell count to DMSO controls, Average 25 μM (cells (nuclei count)) | Relative cell count to DMSO controls, Average 50 μM (cells (nuclei count)) | Relative cell count to DMSO controls, Average (for correlation analysis) (cells (nuclei count)) | Percentage Inhibition Average 1 μM (SARS2) [%] | Screening data (Relative infection to DMSO controls) Average 1 μM (SARS2) | Percentage Inhibition Average 5 μM (SARS2) [%] | Screening data (Relative infection to DMSO controls) Average 5 μM (SARS2) | Percentage Inhibition Average 10 μM (SARS2) [%] | Screening data (Relative infection to DMSO controls) Average 10 μM (SARS2) | Percentage Inhibition Average 25 μM (SARS2) [%] | Screening data (Relative infection to DMSO controls) Average 25 μM (SARS2) | Percentage Inhibition Average 50 μM (SARS2) [%] | Screening data (Relative infection to DMSO controls) Average 50 μM (SARS2) | Average (relative infection to DMSO over the 5 tested concentrations) (SARS2) | also measured |
| --- | --- | --- | --- | --- | --- | --- | --- | --- | --- | --- | --- | --- | --- | --- | --- | --- | --- | --- |
| COc1ccc(-c2[nH]ncc2C(=O)NCC2CCCCC2)cc1OC [SILCS52] | 103.3 | 97.63 | 97.92 | 94.91 | 81.04 | 94.96 | 7.72 | 92.28 | −17.76 | 117.76 | −4.43 | 104.43 | −20.98 | 120.98 | −22.98 | 122.98 | 111.69 |  |
| CCN(CC)CCN(Cc1ccncc1)C(=O)c1cccs1 [SILCS38] | 111.85 | 110 | 115.05 | 107.71 | 105.21 | 109.96 | 23.75 | 76.25 | 15.22 | 84.78 | 26.94 | 73.06 | 1.37 | 98.63 | 13.51 | 86.49 | 83.84 | Toxicity Data, Average, Mean percentage relative to DMSO control (cells (nuclei count); n=4, 1 uM): 111.85%; Toxicity Data, Average, Mean percentage relative to DMSO control (cells (nuclei count); n=4, 5 uM): 110.00%; Toxicity Data, Average, Mean percentage relative to DMSO control (cells (nuclei count); n=4, 10 uM): 115.05%; Toxicity Data, Average, Mean percentage relative to DMSO control (cells (nuclei count); n=4, 25 uM): 107.71%; Toxicity Data, Average, Mean percentage relative to DMSO control (cells (nuclei count); n=4, 50 uM): 105.21%; Percentage Infection Relative to Appropriate DMSO Control with Avg Background Subtraction (SARS2; Exp 1 (SMW491), 1 uM): 101.61% and 80.30%; Percentage Infection Relative to Appropriate DMSO Control with Avg Background Subtraction (SARS2; Exp 1 (SMW491), 5 uM): 101.51% and 104.07%; Percentage Infection Relative to Appropriate DMSO Control with Avg Background Subtraction (SARS2; Exp 1 (SMW491), 10 uM): 91.03% and 87.80%; Percentage Infection Relative to Appropriate DMSO Control with Avg Background Subtraction (SARS2; Exp 1 (SMW491), 25 uM): 110.71% and 103.81%; Percentage Infection Relative to Appropriate DMSO Control with Avg Background Subtraction (SARS2; Exp 1 (SMW491), 50 uM): 96.25% and 89.03%; Percentage Infection Relative to Appropriate DMSO Control with Avg Background Subtraction (SARS2; Exp 2 (SMW492), 1 uM): 74.34% and 48.74%; Percentage Infection Relative to Appropriate DMSO Control with Avg Background Subtraction (SARS2; Exp 2 (SMW492), 5 uM): 72.80% and 60.72%; Percentage Infection Relative to Appropriate DMSO Control with Avg Background Subtraction (SARS2; Exp 2 (SMW492), 10 uM): 63.76% and 49.65%; Percentage Infection Relative to Appropriate DMSO Control with Avg Background Subtraction (SARS2; Exp 2 (SMW492), 50 uM): 90.22% and 70.45%; Infection Data, Average, Mean (SARS2; n 4, 1 uM): 76.25%; Infection Data, Average, Mean (SARS2; n 4, 5 uM): 84.78%; Infection Data, Average, Mean (SARS2; n 4, 10 uM): 73.06%; Infection Data, Average, Mean (SARS2; n 4, 25 uM): 98.63%; Infection Data, Average, Mean (SARS2; n 4, 50 uM): 86.49% |
| CCCCCCCCNC(=O)C1=C(C)NC(=O)NC1c1ccc(OC)c(OC)c1 (centres unmarked) [SILCS65] | 104.64 | 115.73 | 98.27 | 89.35 | 75.91 | 96.78 | 12.85 | 87.15 | 42.13 | 57.87 | −8.68 | 108.68 | −33.09 | 133.09 | −46.13 | 146.13 | 106.58 |  |
| CCN(CC)CCN(Cc1cc(C)c(Br)s1)Cc1cc(C)c(Br)s1 [SILCS39] | 107.69 | 114.94 | 149.83 | 128.15 | 46.35 | 109.39 | 21.81 | 78.19 | 48.17 | 51.83 | 79.68 | 20.32 | 95.89 | 4.11 | 93.60 | 6.40 | 32.17 | Toxicity Data, Average, Mean percentage relative to DMSO control (cells (nuclei count); n=4, 1 uM): 107.69%; Toxicity Data, Average, Mean percentage relative to DMSO control (cells (nuclei count); n=4, 5 uM): 114.94%; Toxicity Data, Average, Mean percentage relative to DMSO control (cells (nuclei count); n=4, 10 uM): 149.83%; Toxicity Data, Average, Mean percentage relative to DMSO control (cells (nuclei count); n=4, 25 uM): 128.15%; Toxicity Data, Average, Mean percentage relative to DMSO control (cells (nuclei count); n=4, 50 uM): 46.35%; Percentage Infection Relative to Appropriate DMSO Control with Avg Background Subtraction (SARS2; Exp 1 (SMW491), 1 uM, listed as SICLS39): 94.45% and 94.76%; Percentage Infection Relative to Appropriate DMSO Control with Avg Background Subtraction (SARS2; Exp 1 (SMW491), 5 uM, listed as SICLS39): 61.21% and 63.14%; Percentage Infection Relative to Appropriate DMSO Control with Avg Background Subtraction (SARS2; Exp 1 (SMW491), 10 uM, listed as SICLS39): 26.66% and 13.52%; Percentage Infection Relative to Appropriate DMSO Control with Avg Background Subtraction (SARS2; Exp 1 (SMW491), 25 uM, listed as SICLS39): 1.98% and 2.03%; Percentage Infection Relative to Appropriate DMSO Control with Avg Background Subtraction (SARS2; Exp 2 (SMW492), 1 uM, listed as SICLS39): 55.17% and 68.37%; Percentage Infection Relative to Appropriate DMSO Control with Avg Background Subtraction (SARS2; Exp 2 (SMW492), 5 uM, listed as SICLS39): 40.93% and 42.02%; Percentage Infection Relative to Appropriate DMSO Control with Avg Background Subtraction (SARS2; Exp 2 (SMW492), 10 uM, listed as SICLS39): 21.95% and 19.13%; Percentage Infection Relative to Appropriate DMSO Control with Avg Background Subtraction (SARS2; Exp 2 (SMW492), 25 uM, listed as SICLS39): 5.42% and 6.99%; Percentage Infection Relative to Appropriate DMSO Control with Avg Background Subtraction (SARS2; Exp 2 (SMW492), 50 uM, listed as SICLS39): 5.19% and 10.37%; Infection Data, Average, Mean (SARS2; n 4, 1 uM): 78.19%; Infection Data, Average, Mean (SARS2; n 4, 5 uM): 51.83%; Infection Data, Average, Mean (SARS2; n 4, 10 uM): 20.32%; Infection Data, Average, Mean (SARS2; n 4, 25 uM): 4.11%; Infection Data, Average, Mean (SARS2; n 4, 50 uM): 6.40% |
| CC1=C(C(=O)NCC2CCCCC2)C(c2cc(C)c(Br)s2)NC(=O)N1 (centres unmarked) [SILCS68] | 117.26 | 114.63 | 110.48 | 100.14 | 91.82 | 106.87 | 32.72 | 67.28 | 28.63 | 71.37 | 16.60 | 83.40 | −10.69 | 110.69 | 20.80 | 79.20 | 82.39 |  |
| CC1=C(C(=O)OC2CCCCCCC2)C(c2ccc3c(c2)OCO3)NC(=O)N1 (centres unmarked) [UMB22_5] |  |  |  |  |  |  |  |  |  |  |  |  |  |  |  |  |  | SARS2 antiviral activity (SARS2): improved activity than ring open analogs |
| O=C(NC1CCCCCC1)c1cn[nH]c1-c1ccc2c(c1)OCCO2 [UMB22_16] |  |  |  |  |  |  |  |  |  |  |  |  |  |  |  |  |  | SARS2 antiviral activity (SARS2): improved activity than ring open analogs |
